Bounds are passed on as bounds.

In the first test the target is T1, TNIK (Homo sapiens, UniProt Q9UKE5).
T1 construct: purchased Promega V4158
T1 sequence (Q9UKE5 1-367 limits assumed): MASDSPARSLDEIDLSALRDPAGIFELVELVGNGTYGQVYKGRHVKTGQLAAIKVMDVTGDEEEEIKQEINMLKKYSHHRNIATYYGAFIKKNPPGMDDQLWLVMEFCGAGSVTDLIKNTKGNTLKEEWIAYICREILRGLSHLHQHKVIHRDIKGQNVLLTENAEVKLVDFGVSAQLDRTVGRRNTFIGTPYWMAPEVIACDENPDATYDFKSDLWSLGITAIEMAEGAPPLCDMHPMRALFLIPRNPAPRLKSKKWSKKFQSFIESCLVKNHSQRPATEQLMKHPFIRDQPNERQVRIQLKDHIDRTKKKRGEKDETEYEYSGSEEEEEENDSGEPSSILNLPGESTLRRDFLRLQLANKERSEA
Briefly: ADP-Glo Kinase Assay, inhibition activity on TNIK.
Conditions: not given
The class given is biochemical. As for the experimental part:
The inhibition activities on TNIK, IKKε and TBK1 were measured by a luminometer, TNIK/IKKε/TBK1 Kinase Enzyme System (Promega, Ca# V4158; Invitrogen, PR8031B, Promega, Ca# V3991) and ADP-Glo Kinase Assay using ADP-Glo™ Kinase Analysis Kit (Promega, Ca# V9101) and a kinase reaction buffer [40 mM Tris(pH 7.5), 20 mM MgCl2, 0.1 mg/mL BSA] in accordance with the manufacturer's protocol.
As for `COC(=O)c1ccc(-c2ccc(NC(=O)c3ccccc3)c3c2CNC3=O)cc1` [Example 10, methyl 4-(7-benzamido-1-oxoisoindolin-4-yl)benzo ate], the “TNIK (μM)” value was “Insoluble”.

For `CC(=O)c1ccc(-c2ccc(NC(=O)c3ccccc3)c3c2CNC3=O)cc1` [Example 13, N-(7-(4-acetylphenyl)-3-oxoisoindolin-4-yl)benzamide], the “TNIK (μM)” value is recorded as “Insoluble”.

Take `O=C(Nc1ccc(-c2cc(Cl)ccc2Cl)c2c1C(=O)NC2)c1ccccc1` [Example 19, N-(7-(2,5-dichlorophenyl)-3-oxoisoindolin-4-yl)benzamide]: the “TNIK (μM)” value was “Insoluble”.

Consider `COc1cc(F)ccc1-c1ccc(NC(=O)c2ccccc2)c2c1CNC2=O` [Example 22, N-(7-(4-fluoro-2-methoxyphenyl)-3-oxoisoindolin-4-yl)benzamide], for which the “TNIK (μM)” value is “Insoluble”.

In the case of `COc1ccc(-c2ccc(NC(=O)c3ccccc3)c3c2CNC3=O)c(OC)c1OC` [Example 25, N-(3-oxo-7-(2,3,4-trimethoxyphenyl)isoindolin-4-yl)benzamide], the “TNIK (μM)” value is on record as “Insoluble”.

The same test, now with this note: read-out: TNIK.
Consider `CCc1ccccc1-c1ccc(NC(=O)c2ccccc2)c2c1CNC2=O` [Example 1, N-(7-(2-ethylphenyl)-3-oxoisoindolin-4-yl)benzamide], for which the IC50 was determined as 3.1 µM.

For `CC(C)c1cccc(-c2ccc(NC(=O)c3ccccc3)c3c2CNC3=O)c1` [Example 2, N-(7-(3-isopropylphenyl)-3-oxoisoindolin-4-yl)benzamide], the IC50 was more than 20 µM.

For `CC(C)(C)c1ccc(-c2ccc(NC(=O)c3ccccc3)c3c2CNC3=O)cc1` [Example 3, N-(7-(4-(tert-butyl)phenyl)-3-oxoisoindolin-4-yl)benzamide], the IC50 is more than 20 µM.

In the case of `O=C(Nc1ccc(-c2ccccc2OC(F)(F)F)c2c1C(=O)NC2)c1ccccc1` [Example 4, N-(3-oxo-7-(2-(trifluoromethoxy)phenyl)isoindolin-4-yl)benzamide], the IC50 is 3 µM.

Regarding `O=C(Nc1ccc(-c2cccc(OC(F)(F)F)c2)c2c1C(=O)NC2)c1ccccc1` [Example 5, N-(3-oxo-7-(3-(trifluoromethoxy)phenyl)isoindolin-4-yl)benzamide], the IC50 is more than 20 µM.

For the compound `CC(C)Oc1ccccc1-c1ccc(NC(=O)c2ccccc2)c2c1CNC2=O` [Example 6, N-(7-(2-isopropoxyphenyl)-3-oxoisoindolin-4-yl)benzamide], the IC50 was more than 20 µM.

With `CC(C)Oc1cccc(-c2ccc(NC(=O)c3ccccc3)c3c2CNC3=O)c1` [Example 7, N-(7-(3-isopropoxyphenyl)-3-oxoisoindolin-4-yl)benzamide], the IC50 was more than 20 µM.

For the compound `COC(=O)c1ccccc1-c1ccc(NC(=O)c2ccccc2)c2c1CNC2=O` [Example 8, methyl 2-(7-benzamido-1-oxoisoindolin-4-yl)benzo ate], the IC50 was more than 20 µM.

On to `COC(=O)c1cccc(-c2ccc(NC(=O)c3ccccc3)c3c2CNC3=O)c1` [Example 9, methyl 3-(7-benzamido-1-oxoisoindolin-4-yl)benzo ate], for which the IC50 was more than 20 µM.

Take `CC(=O)c1ccccc1-c1ccc(NC(=O)c2ccccc2)c2c1CNC2=O` [Example 11, N-(7-(2-acetylphenyl)-3-oxoisoindolin-4-yl)benzamide]: the IC50 was found to be 9.5 µM.

For `CC(=O)c1cccc(-c2ccc(NC(=O)c3ccccc3)c3c2CNC3=O)c1` [Example 12, N-(7-(3-acetylphenyl)-3-oxoisoindolin-4-yl)benzamide], the IC50 was more than 20 µM.

With `CSc1ccccc1-c1ccc(NC(=O)c2ccccc2)c2c1CNC2=O` [Example 14, N-(7-(2-(methylthio)phenyl)-3-oxoisoindolin-4-yl)benzamide], the IC50 stood at 1.1 µM.

As to `O=C(Nc1ccc(-c2ccc(F)cc2F)c2c1C(=O)NC2)c1ccccc1` [Example 15, N-(7-(2,4-difluorophenyl)-3-oxoisoindolin-4-yl)benzamide], the IC50 is more than 20 µM.

As for `Cc1cccc(-c2ccc(NC(=O)c3ccccc3)c3c2CNC3=O)c1C` [Example 16, N-(7-(2,3-dimethylphenyl)-3-oxoisoindolin-4-yl)benzamide], the IC50 was 1.3 µM.

For the compound `O=C(Nc1ccc(-c2cccc(Cl)c2Cl)c2c1C(=O)NC2)c1ccccc1` [Example 17, N-(7-(2,3-dichlorophenyl)-3-oxoisoindolin-4-yl)benzamide], the IC50 came to 1 µM.

On to `O=C(Nc1ccc(-c2ccc(Cl)cc2Cl)c2c1C(=O)NC2)c1ccccc1` [Example 18, N-(7-(2,4-dichlorophenyl)-3-oxoisoindolin-4-yl)benzamide], for which the IC50 is more than 20 µM.

On to `O=C(Nc1ccc(-c2ccc(Cl)c(Cl)c2)c2c1C(=O)NC2)c1ccccc1` [Example 20, N-(7-(3,4-dichlorophenyl)-3-oxoisoindolin-4-yl)benzamide], for which the IC50 is more than 20 µM.

Regarding `O=C(Nc1ccc(-c2cc(Cl)cc(Cl)c2)c2c1C(=O)NC2)c1ccccc1` [Example 21, N-(7-(3,5-dichlorophenyl)-3-oxoisoindolin-4-yl)benzamide], the IC50 is more than 20 µM.

Regarding `O=C(Nc1ccc(-c2cccc(F)c2Cl)c2c1C(=O)NC2)c1ccccc1` [Example 23, N-(7-(2-chloro-3-fluorophenyl)-3-oxoisoindolin-4-yl)benzamide], the IC50 came to 8.9 µM.

For the compound `COc1cccc(-c2ccc(NC(=O)c3ccccc3)c3c2CNC3=O)c1F` [Example 24, N-(7-(2-fluoro-3-methoxyphenyl)-3-oxoisoindolin-4-yl)benzamide], the IC50 was more than 20 µM.

`Cc1ccc(-c2ccc(NC(=O)c3ccccc3)c3c2CNC3=O)cc1C` [Example 26, N-(7-(3,4-dimethylphenyl)-3-oxoisoindolin-4-yl)benzamide]: the IC50 came to 3.8 µM.

Regarding `Cc1cc(C)cc(-c2ccc(NC(=O)c3ccccc3)c3c2CNC3=O)c1` [Example 27, N-(7-(3,5-dimethylphenyl)-3-oxoisoindolin-4-yl)benzamide], the IC50 is 3 µM.

`Cc1cccc(C)c1-c1ccc(NC(=O)c2ccccc2)c2c1CNC2=O` [Example 28, N-(7-(2,6-dimethylphenyl)-3-oxoisoindolin-4-yl)benzamide]: the IC50 was 1.7 µM.

On to `CCc1ccc(NC(=O)c2ccccc2)c2c1CNC2=O` [Example 29, N-(7-ethyl-3-oxoisoindolin-4-yl)benzamide], for which the IC50 stood at 1.8 µM.

For `O=C(Nc1ccc(-c2cc(F)cc(F)c2)c2c1C(=O)NC2)c1ccccc1` [Example 30, N-(7-(3,5-difluorophenyl)-3-oxoisoindolin-4-yl)benzamide], the IC50 is more than 20 µM.

In the case of `Cc1ccc(C)c(-c2ccc(NC(=O)c3ccccc3)c3c2CNC3=O)c1` [Example 31, N-(7-(2,5-dimethylphenyl)-3-oxoisoindolin-4-yl)benzamide], the IC50 stood at 1.6 µM.

With `O=C(Nc1ccc(-c2cc(F)ccc2F)c2c1C(=O)NC2)c1ccccc1` [Example 32, N-(7-(2,5-difluorophenyl)-3-oxoisoindolin-4-yl)benzamide], the IC50 was determined as 1 µM.

Turning to `O=C(Nc1ccc(-c2ccc(F)c(F)c2)c2c1C(=O)NC2)c1ccccc1` [Example 33, N-(7-(3,4-difluorophenyl)-3-oxoisoindolin-4-yl)benzamide], the IC50 was 3.7 µM.

Turning to `O=C(Nc1ccc(-c2cccc(F)c2F)c2c1C(=O)NC2)c1ccccc1` [Example 34, N-(7-(2,3-difluorophenyl)-3-oxoisoindolin-4-yl)benzamide], the IC50 came out at 0.54 µM.

In the case of `CCCCc1ccc(NC(=O)c2ccccc2)c2c1CNC2=O` [Example 35, N-(7-butyl-3-oxoisoindolin-4-yl)benzamide], the IC50 amounted to 8.6 µM.

On to `CCCc1ccc(NC(=O)c2ccc(F)cc2)c2c1CNC2=O` [Example 36, 4-fluoro-N-(3-oxo-7-propylisoindolin-4-yl)benzamide], for which the IC50 is more than 20 µM.

Take `Cc1ccc(NC(=O)c2ccccc2)c2c1CNC2=O` [Example 37, N-(7-methyl-3-oxoisoindolin-4-yl)benzamide]: the IC50 turned out to be 6.1 µM.

For the compound `Cc1ccc(-c2ccc(NC(=O)c3ccccc3)c3c2CNC3=O)c(C)c1` [Example 38, N-(7-(2,4-dimethylphenyl)-3-oxoisoindolin-4-yl)benzamide], the IC50 was 1.7 µM.

Consider `CCc1ccc(-c2ccc(NC(=O)c3ccccc3)c3c2CNC3=O)cc1` [Example 39, N-(7-(4-ethylphenyl)-3-oxoisoindolin-4-yl)benzamide], for which the IC50 amounted to 6.1 µM.

Take `CC(C)Oc1ccc(-c2ccc(NC(=O)c3ccccc3)c3c2CNC3=O)cc1` [Example 40, N-(7-(4-isopropoxyphenyl)-3-oxoisoindolin-4-yl)benzamide]: the IC50 is more than 20 µM.

As to `CSc1ccc(-c2ccc(NC(=O)c3ccccc3)c3c2CNC3=O)cc1` [Example 41, N-(7-(4-(methylthio)phenyl)-3-oxoisoindolin-4-yl)benzamide], the IC50 was found to be 1.2 µM.

For the compound `CCc1cccc(-c2ccc(NC(=O)c3ccccc3)c3c2CNC3=O)c1` [Example 42, N-(7-(3-ethylphenyl)-3-oxoisoindolin-4-yl)benzamide], the IC50 amounted to 3.7 µM.

Consider `CCCOc1ccccc1-c1ccc(NC(=O)c2ccccc2)c2c1CNC2=O` [Example 43, N-(3-oxo-7-(2-propoxyphenyl)isoindolin-4-yl)benzamide], for which the IC50 was more than 20 µM.

Consider `CCCOc1cccc(-c2ccc(NC(=O)c3ccccc3)c3c2CNC3=O)c1` [Example 44, N-(3-oxo-7-(3-propoxyphenyl)isoindolin-4-yl)benzamide], for which the IC50 was more than 20 µM.

As to `CCCCOc1ccccc1-c1ccc(NC(=O)c2ccccc2)c2c1CNC2=O` [Example 45, N-(7-(2-butoxyphenyl)-3-oxoisoindolin-4-yl)benzamide], the IC50 was more than 20 µM.

With `CCCCOc1cccc(-c2ccc(NC(=O)c3ccccc3)c3c2CNC3=O)c1` [Example 46, N-(7-(3-butoxyphenyl)-3-oxoisoindolin-4-yl)benzamide], the IC50 was more than 20 µM.

Source of the values: patent US9856216B2, “Compounds as TNIK, IKKε and TBK1 inhibitors and pharmaceutical composition comprising same” (GREEN CROSS CORPORATION, priority 2015, dated 2018).
